Bounds are passed on as bounds.

This assay has as its target T1, HDAC6 (Homo sapiens, UniProt Q9UBN7).
T1 construct: Full length human recombinant HDAC6 protein was expressed in baculoviral system; made in house; host or cells: baculoviral system
T1 sequence (Q9UBN7 1-1215): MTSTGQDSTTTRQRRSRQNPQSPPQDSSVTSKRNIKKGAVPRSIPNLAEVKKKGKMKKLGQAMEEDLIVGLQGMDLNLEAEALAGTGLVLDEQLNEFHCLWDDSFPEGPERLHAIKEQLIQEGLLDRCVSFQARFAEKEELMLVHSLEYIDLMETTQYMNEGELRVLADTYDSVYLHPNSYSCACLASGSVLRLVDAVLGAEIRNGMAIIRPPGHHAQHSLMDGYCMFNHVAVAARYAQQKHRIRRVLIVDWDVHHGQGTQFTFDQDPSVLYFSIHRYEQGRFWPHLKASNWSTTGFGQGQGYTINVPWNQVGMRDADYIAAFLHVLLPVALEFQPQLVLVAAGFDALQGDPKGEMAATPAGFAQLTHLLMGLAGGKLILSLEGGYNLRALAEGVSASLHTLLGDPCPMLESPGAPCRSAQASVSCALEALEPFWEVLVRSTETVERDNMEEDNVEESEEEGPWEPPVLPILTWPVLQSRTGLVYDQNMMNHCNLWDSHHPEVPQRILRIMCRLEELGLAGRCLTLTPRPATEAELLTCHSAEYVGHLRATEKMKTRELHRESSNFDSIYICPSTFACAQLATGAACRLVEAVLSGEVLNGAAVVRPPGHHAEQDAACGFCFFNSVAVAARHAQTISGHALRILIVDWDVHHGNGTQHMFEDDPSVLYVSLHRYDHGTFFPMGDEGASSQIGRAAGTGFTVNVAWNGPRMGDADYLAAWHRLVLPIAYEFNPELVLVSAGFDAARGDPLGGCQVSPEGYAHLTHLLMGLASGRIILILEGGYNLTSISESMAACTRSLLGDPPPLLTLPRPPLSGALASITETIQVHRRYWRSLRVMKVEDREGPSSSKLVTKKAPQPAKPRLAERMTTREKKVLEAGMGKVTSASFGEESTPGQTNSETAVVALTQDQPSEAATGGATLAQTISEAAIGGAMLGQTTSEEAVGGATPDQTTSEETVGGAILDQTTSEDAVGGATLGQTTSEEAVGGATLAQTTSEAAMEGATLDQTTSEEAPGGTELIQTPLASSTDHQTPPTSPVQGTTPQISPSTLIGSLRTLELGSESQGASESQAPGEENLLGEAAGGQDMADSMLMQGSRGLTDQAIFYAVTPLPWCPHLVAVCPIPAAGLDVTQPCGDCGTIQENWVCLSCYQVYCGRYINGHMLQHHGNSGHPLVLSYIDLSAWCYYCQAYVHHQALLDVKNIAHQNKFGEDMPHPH
The experiment in a line: In vitro Histone Deacetylase Assay (enzymatic HDAC6 electrophoretic mobility shift assay). The assay is classed as biochemical. As to conditions: full length human recombinant HDAC6, 1 nM enzyme, 2 μM peptide substrate RHKK(Ac)-NH2, 25° C.; read-out: HDAC6 activity range. The procedure: The enzymatic HDAC6 assay was performed using electrophoretic mobility shift assay. Full length human recombinant HDAC6 protein was expressed in baculoviral system and purified by affinity chromatography. The enzymatic reactions were assembled in 384 well plates in a total volume of 25 μL in a reaction buffer composing: 100 mM HEPES, pH7.5, 25 mM KCl, 0.1% bovine serum albumin, 0.01% Triton X-100, 1% DMSO (from compounds) 2 μM of the fluorescently labeled peptide substrate and enzyme. The enzyme was added at a final concentration of 1 nM. The peptide substrate RHKK(Ac)—NH2 was used. The compounds were tested at 12 concentrations spaced by 3× dilution intervals. Negative control samples (0%-inhibition in the absence of inhibitor) and positive control samples (100%-inhibition) were assembled in replicates of four in each assay plate. The reactions were incubated at 25° C. and quenched by the addition of 45 μL of termination buffer (100 mM HEPES, pH 7.5, 0.01% Triton X-100, 0.05% SDS).
The terminated assay plates were analyzed on LabChip® 3000 microfluidic electrophoresis instrument (Perkin Elmer/Caliper Life Sciences). The fluorescence intensity of the electrophoretically separated de-acetylated product and substrate peptide was measured. Activity in each sample was determined as the product to sum ratio (PSR): P/(S+P), where P is the peak height of the product peptide and S is the peak height of the substrate peptide. Percent inhibition (Pinh) is determined using the following equation:
Pinh=(PSR0%−PSRinh)/(PSR0%−PSR100%)*100, where PSRinh is the product sum ratio in the presence of inhibitor, PSR0% is the average product sum ration in the absence of inhibitor and PSR100% is the average product sum ratio in 100%-inhibition control samples. The IC50 values of inhibitors were determined by fitting the %-inhibition curves with 4 parameter dose-response model using XLfit 4 software.
As set forth in Table-31, below, IC50 values are defined as follows: IC50≦0.1 μM (+++); IC50>0.1 μM and ≦0.5 μM (++); IC50>0.5 μM (+).
For the compound `O=C(NO)c1ccc2c(c1)CC[C@@]1(CCCN(C3CCCC3)C1=O)C2` [Compound I-199, (R)-1′-cyclopentyl-N-hydroxy-2′-oxo-3,4-dihydro-1H-spiro[naphthalene-2,3′-piperidine]-6-carboxamide], the IC50 was no more than 100 nM. On to `O=C(NO)c1ccc2c(c1)CCC1(CC(=O)N(Cc3ccccc3)C1)C2` (single isomer, unassigned) [Compound I-218], for which the IC50 was no more than 100 nM. Take `O=C(NO)c1ccc2c(c1)CC[C@]1(CCN(Cc3ccc4nonc4c3)C1=O)C2` [Compound I-42, (R)-1′-(benzo[c][1,2,5]oxadiazol-5-ylmethyl)-N-hydroxy-2′-oxo-3,4-dihydro-1H-spiro[naphthalene-2,3′-pyrrolidine]-6-carboxamide]: the IC50 is no more than 100 nM. On to `O=C(NO)c1ccc2c(c1)CC[C@]1(CCN(c3cc(F)ccc3F)C1=O)C2` [Compound I-167, (R)-1′-(2,5-difluorophenyl)-N-hydroxy-2′-oxo-3,4-dihydro-1H-spiro[naphthalene-2,3'-pyrrolidine]-6-carboxamide], for which the IC50 is no more than 100 nM. In the case of `Cc1nn(C)cc1N1CC[C@]2(CCc3cc(C(=O)NO)ccc3C2)C1=O` [Compound I-98, (R)-1′-(1,3-dimethyl-1H-pyrazol-4-yl)-N-hydroxy-2′-oxo-3,4-dihydro-1H-spiro[naphthalene-2,3′-pyrrolidine]-6-carboxamide], the IC50 was no more than 100 nM. For `O=C(NO)c1ccc2c(c1)CC[C@@]1(CCN(c3cncc(Cl)c3)C1=O)C2` [Compound I-138, (S)-1′-(5-chloropyridin-3-yl)-N-hydroxy-2′-oxo-3,4-dihydro-1H-spiro[naphthalene-2,3′-pyrrolidine]-6-carboxamide], the IC50 was no more than 100 nM. Then `O=C(NO)c1ccc2c(c1)CC[C@]1(CCN(Cc3cnc(Cl)s3)C1=O)C2` [Compound I-30, (R)-1′-((2-chlorothiazol-5-yl)methyl)-N-hydroxy-2′-oxo-3,4-dihydro-1H-spiro[naphthalene-2,3′-pyrrolidine]-6-carboxamide], with no more than 100 nM; and `COc1ccc(CCN2CCC3(CCc4cc(C(=O)NO)ccc4C3)C2=O)cc1` (stereo not shown) [Compound I-4, N-hydroxy-1′-(4-methoxyphenethyl)-2′-oxo-3,4-dihydro-1H-spiro[naphthalene-2,3′-pyrrolidine]-6-carboxamide], with no more than 100 nM. Take `O=C(NO)c1ccc2c(c1)CC[C@]1(CCN(c3ccncc3)C1=O)C2` [Compound I-16, (R)-N-hydroxy-2′-oxo-1′-(pyridin-4-yl)-3,4-dihydro-1H-spiro[naphthalene-2,3′-pyrrolidine]-6-carboxamide]: the IC50 was in the range of 100 to 500 nM.

`O=C(NO)c1ccc2c(c1)CC[C@]1(CC(=O)N(CC3CCC3)C1)C2` (single isomer, unassigned) [Compound I-205]: the IC50 is no more than 100 nM.

Turning to `COc1cncc(N2CC[C@]3(CCc4cc(C(=O)NO)ccc4C3)C2=O)c1` [Compound I-143, (R)-N-hydroxy-1′-(5-methoxypyridin-3-yl)-2′-oxo-3,4-dihydro-1H-spiro[naphthalene-2,3′-pyrrolidine]-6-carboxamide], the IC50 is no more than 100 nM. Turning to `O=C(NO)c1ccc2c(c1)CC[C@@]1(CCN(Cc3cccnc3)C1=O)C2` [Compound I-19, (S)-N-hydroxy-2′-oxo-1′-(pyridin-3-ylmethyl)-3,4-dihydro-1H-spiro[naphthalene-2,3′-pyrrolidine]-6-carboxamide], the IC50 was no more than 100 nM.

Take `Cc1ccc(CN2CCC3(CCc4cc(C(=O)NO)ccc4C3)C2=O)cc1` (stereo not shown) [Compound I-8, N-hydroxy-1′-(4-methylbenzyl)-2′-oxo-3,4-dihydro-1H-spiro[naphthalene-2,3′-pyrrolidine]-6-carboxamide]: the IC50 lay within 100 to 500 nM.

Turning to `O=C(NO)c1ccc2c(c1)CC[C@]1(CCN(Cc3ccccc3OC(F)F)C1=O)C2` [Compound I-59, (R)-1′-(2-(difluoromethoxy)benzyl)-N-hydroxy-2′-oxo-3,4-dihydro-1H-spiro[naphthalene-2,3′-pyrrolidine]-6-carboxamide], the IC50 was no more than 100 nM. The value for `O=C(NO)c1ccc2c(c1)CCC1(CCN(c3ccccc3)C1=O)O2` (stereo not shown) [Compound I-231, N-hydroxy-2′-oxo-1′-phenylspiro[chromane-2,3′-pyrrolidine]-6-carboxamide] was 100 to 500 nM. As for `COc1ccccc1N1CC[C@]2(CCc3cc(C(=O)NO)ccc3C2)C1=O` [Compound I-111], the IC50 is no more than 100 nM.

For the compound `O=C(NO)c1ccc2c(c1)CC[C@@]1(CCN(Cc3ccccn3)C1=O)C2` [Compound I-78, (S)-N-hydroxy-2′-oxo-1′-(pyridin-2-ylmethyl)-3,4-dihydro-1H-spiro[naphthalene-2,3′-pyrrolidine]-6-carboxamide], the IC50 was no more than 100 nM.

Regarding `O=C(NO)c1ccc2c(c1)CCC1(CCN(Cc3nc4ccccc4[nH]3)CC1)O2` [II-2, 1′-((1H-benzo[d]imidazol-2-yl)methyl)-N-hydroxyspiro[chromane-2,4′-piperidine]-6-carboxamide], the IC50 is greater than 500 nM. Turning to `CC(C)CN1CC[C@@]2(CCc3cc(C(=O)NO)ccc3C2)C1=O` [Compound I-160, (S)-N-hydroxy-1′-isobutyl-2′-oxo-3,4-dihydro-1H-spiro[naphthalene-2,3′-pyrrolidine]-6-carboxamide], the IC50 lay in the range of 100 to 500 nM. `CC(C)n1c(CN2CC[C@]3(CCc4cc(C(=O)NO)ccc4C3)C2=O)nc2ccccc21` [Compound I-45]: the IC50 was no more than 100 nM. In the case of `O=C(NO)c1ccc2c(c1)CCC1(CCN(Cc3ccncc3)C1=O)O2` (stereo not shown) [Compound I-230, N-hydroxy-2′-oxo-1′-(pyridin-4-ylmethyl)spiro[chromane-2,3′-pyrrolidine]-6-carboxamide], the IC50 was greater than 500 nM.

Consider `O=C(NO)c1ccc2c(c1)CCC1(CCN(C(=O)N3CC4(CCOCC4)c4ccccc43)CC1)O2` [II-9, N-hydroxy-1′-(2′,3′,5′,6′-tetrahydrospiro[indoline-3,4′-pyran]-1-carbonyl)spiro[chromane-2,4′-piperidine]-6-carboxamide], for which the IC50 is greater than 500 nM. `O=C(NO)c1ccc2c(c1)CC[C@@]1(CCN(c3ccccc3F)C1=O)C2` [Compound I-157, (S)-1′-(2-fluorophenyl)-N-hydroxy-2′-oxo-3,4-dihydro-1H-spiro[naphthalene-2,3′-pyrrolidine]-6-carboxamide]: the IC50 was no more than 100 nM. The value for `O=C(NO)c1ccc2c(c1)CC[C@]1(CCN(Cc3ccc(S(=O)(=O)C(F)(F)F)cc3)C1=O)C2` [Compound I-106, (R)-N-hydroxy-2′-oxo-1′-(4-((trifluoromethyl)sulfonyl)benzyl)-3,4-dihydro-1H-spiro[naphthalene-2,3′-pyrrolidine]-6-carboxamide] was no more than 100 nM; that for `O=C(NO)c1ccc2c(c1)CCC1(CCN(S(=O)(=O)C3CCCCC3)CC1)O2` [II-6, 1′-(cyclohexylsulfonyl)-N-hydroxyspiro[chromane-2,4′-piperidine]-6-carboxamide] was 100 to 500 nM.

Source of the values: patent US9630922B2, “3-spiro-7-hydroxamic acid tetralins as HDAC inhibitors” (Forma Therapeutics, Inc., priority 2015, dated 2017).
